Experimental data published in article PMC10010340, “The Wnt Pathway Inhibitor RXC004 Blocks Tumor Growth and Reverses Immune Evasion in Wnt Ligand–dependent Cancer Models” (Cancer Research Communications, 2022).
≈ marks a conversion by molar mass, not a printed value.

Key:
Hepatocyte stability = type: in vitro ADME, rat (Sprague Dawley); conditions: Rat, 1 μmol/L
Description: Metabolic stability: liver microsomes and hepatocytes from human, mouse (CD1), rat (Sprague Dawley) and dog (Beagle) were obtained from Invitrogen. RXC004 (1 μmol/L) was incubated at 37°C with microsomes (0.5 mg · mL^−1) or hepatocytes (0.5 × 10^6 cells · mL^−1). Aliquots were removed at 0–45 minutes and RXC004 concentrations determined by LC/MS-MS analysis. Half-life (T1/2) and intrinsic clearance (CLint) were calculated as described in ref. [18].

Aqueous solubility = type: physicochemical; conditions: pH 7.4 buffer, 25°C
Description: Following filtration under positive pressure, compound concentration in solution was assessed by high-performance liquid chromatography coupled to an ultraviolet detector (LC-UV).

[1] = tested on: Wnt5a secretion from L-Wnt5a cells; experiment: Wnt secretion assay; type: cell-based; conditions: 300 nmol/L, 48 hours
Description: L-Wnt5a cells (L cells overexpressing Wnt5a; ATCC CRL-2814) were treated with RXC004 (300 nmol/L) or DMSO for 48 hours. Wnt5a secreted into media was detected by Western blotting using anti-Wnt5a antibody (Cell Signaling Technology #2530).

Porcupine = biological target: T1, Porcupine (Homo sapiens, UniProt Q9H237); experiment: Wnt palmitoylation assay (GFP-Wnt1-Fc in HEK293T cells); type: cell-based; conditions: 100 nmol/L; GFP-Wnt1-Fc in HEK293T cells with alkyne palmitate
T1 construct: HEK293T cells were transfected with GFP-Wnt1-Fc constructs; endogenous in cells; host or cells: HEK293T
Description: Palmitoylation of Wnt was performed by the Burris group, under a fee-for-service agreement, and was detected as described in Galli and colleagues ([16]). Briefly, HEK293T cells were transfected with GFP-Wnt1-Fc constructs, followed by overnight incubation with alkyne palmitate (Alk-C16) in the presence of DMSO or 100 nmol/L RXC004. Cells were lysed and A/G agarose beads used to pull down GFP-Wnt1-Fc, which was then subjected to click chemistry to covalently attach biotin azide to any attached alkyne palmitate. Following SDS-PAGE and Western blotting, palmitoylation of Wnt was detected using Streptavidin IR 800 dye. GFP detection served as a transfection and/or loading control.

recombinant CYP enzymes = experiment: Recombinant CYP enzyme assays (metabolism); type: in vitro ADME
[2] = tested on: cells with upstream aberrations in Wnt pathway components; experiment: Cell-cycle analysis by flow cytometry; type: cell-based, human; conditions: 100 nmol/L, 3 days
Description: For concentration–response effects on gene expression, Single-Shot Cell Lysis kit (Bio-Rad #172-5080) was used for RNA extraction, data were normalized to DMSO-treated controls, and IC50 values determined. For cell-cycle analysis, the cancer cell line panel was treated with RXC004 (100 nmol/L) or DMSO (0.1%) for 3 days. Cell-cycle profiles were determined by staining with propidium iodide (Thermo Fisher Scientific #P3566) and phospho-Ser10-Histone-H3 (AlexaFluor-647, BioLegend #650806), and quantified using an Agilent Novocyte-3000 flow cytometer. For in vitro growth curve analysis, HPAF-II and SNU-1411 cells were seeded in 96-well plates at 2,000 cells/well and imaged on the IncuCyte (Sartorius) at 10× magnification with 4 fields of view per well. Total cell object count over time was calculated using the Adherent Cell-by-Cell analysis module.

[3] = tested on: HPAF-II cells cocultured with human PBMCs; experiment: HPAF-II / human PBMC coculture; type: cell-based; conditions: HPAF-II pretreated 100 nmol/L, 3 days
Description: HPAF-II cells were incubated for 3 days with RXC004 (100 nmol/L) or DMSO control, washed and detached using Accutase and equal number of viable cells (as assessed by Trypan Blue exclusion) per treatment were reseeded in 96-well plates. Frozen human peripheral blood mononuclear cells (PBMC), originally collected by density gradient separation using Histopaque from four healthy donors, were thawed and cultured in complete media. After approximately 40 hours, nonadherent PBMCs were added to coculture with the HPAF-II cells, at a PBMC:HPAF-II ratio of 5:1. T-cell proliferation and cytokine production was stimulated using Immunocult CD3/CD28-tetramer (Stemcell Technologies #10971). For monoculture nonadherent PBMC experiments, T cells were stimulated using Immunocult in the presence or absence of recombinant Wnt3a (Biotechne #5036-WN-010) and/or recombinant Wnt5a (Biotechne #645-WN-010), both at 100 ng/mL. After 5 days, supernatants from monoculture or coculture experiments were removed for analysis, whereas suspension cells were fixed, stained with anti-Ki67 (BD #563462), anti-CD4 (BioLegend #317420), and anti-CD8 (BD #564116) antibodies, before flow cytometry was performed on a Novocyte flow cytometer. Cytokines and chemokines in the supernatant were quantified using a 30-plex panel on Magpix (Thermo Fisher Scientific #LHC6003M) or ELISA for IFNγ (R&D Systems # DY285B-05).

In vivo pharmacokinetics = conditions: beagle, dog
Description: In vivo pharmacokinetics: RXC004 was dosed to male Sprague Dawley rats, male CD1 mice or dog (beagle) by intravenous and oral routes. Bioanalysis of blood and plasma samples was performed by LC/MS-MS using a Waters TQS or TQMS mass spectrometer. Pharmacokinetic information was derived using WinNonlin software (Certara).

SNU-1411 cells = experiment: Caspase 3/7 analysis; type: cell-based, human; conditions: SNU-1411, 100nM, 7 days
Description: (§1) Cells were treated with RXC004 (100 nmol/L) or DMSO (0.02%) for 7 days. Caspase 3/7 activity was measured using Caspase-Glo 3/7 Assay System (Promega #G8091) and data were plotted as a ratio relative to cell number as quantified using ATPlite 1-Step Reagent (Perkin Elmer #6016731).

HPAF-II cells = experiment: Caspase 3/7 analysis; type: cell-based, human; conditions: 100nM, 7 days
Description: as §1

T1 sequence (Q9H237 whole entry): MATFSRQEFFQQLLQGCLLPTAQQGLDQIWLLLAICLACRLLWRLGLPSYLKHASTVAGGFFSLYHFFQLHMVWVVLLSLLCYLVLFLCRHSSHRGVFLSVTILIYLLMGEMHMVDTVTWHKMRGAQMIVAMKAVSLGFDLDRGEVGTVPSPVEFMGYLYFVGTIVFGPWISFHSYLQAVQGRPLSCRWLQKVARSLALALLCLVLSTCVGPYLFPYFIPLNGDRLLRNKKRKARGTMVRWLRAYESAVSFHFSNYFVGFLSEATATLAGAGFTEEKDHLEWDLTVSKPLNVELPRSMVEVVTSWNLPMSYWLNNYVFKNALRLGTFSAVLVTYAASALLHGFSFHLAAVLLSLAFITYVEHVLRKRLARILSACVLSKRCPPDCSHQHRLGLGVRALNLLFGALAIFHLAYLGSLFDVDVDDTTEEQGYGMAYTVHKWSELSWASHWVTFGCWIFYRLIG

SMILES: Cc1c(-c2ccnc(C(F)(F)F)c2)ncn1CC(=O)Nc1ccc(-c2cnccn2)cn1 [RXC004, 2-[5-methyl-4-[2-(trifluoromethyl)-4-pyridyl]imidazol-1-yl]-N-(5-pyrazin-2-yl-2-pyridyl)acetamide]
- Hepatocyte stability: CLint (Hepatocyte stability): 5.3 μL minute^−^1 · 10^6 cells^−^1
- solubility at 24 h (Aqueous solubility): 56 µM (≈ 24.6 µg/mL)
- Wnt5a secretion into the media [1]: inhibited Wnt5a secretion
- palmitoylation of Wnt (Porcupine): inhibited palmitoylation of Wnt
- metabolizing CYP enzyme (recombinant CYP enzymes): exclusively metabolized by CYP3A4
- expression of mitosis marker phospho-histone-H3 [2]: strongly inhibited expression of the mitosis marker phospho-histone-H3
- proportion of cells in S-phase [2]: reduced the proportion of cells in S-phase
- HPAF-II inhibition of T-cell proliferation and IFNγ/GMCSF release [3]: fully reversed
- release of CXCL9 [3]: potentiated the HPAF-II–dependent release of the chemokine CXCL9
- secretion of VEGF [3]: reducing the HPAF-II–dependent secretion of the angiogenesis promoting growth factor VEGF
- half-life (In vivo pharmacokinetics; dose i.v./p.o. 2/5 mg/kg, read-out: T½ (converted)): 48 min
- clearance (In vivo pharmacokinetics; intravenous, 2 mg/kg, dose i.v./p.o. 2/5 mg/kg): 8.9 mL/min/kg
- Vd (In vivo pharmacokinetics; intravenous, 2 mg/kg, dose i.v./p.o. 2/5 mg/kg, read-out: Vss): 0.39 L/kg
- AUC(0-inf) (In vivo pharmacokinetics; po, 5 mg/kg p.o.): 8.6 µM·h
- Cmax (In vivo pharmacokinetics; po, 5 mg/kg p.o.): 10.4 µM
- concentration at 24 h (In vivo pharmacokinetics; po, 5 mg/kg p.o., read-out: C24h (p.o.)): 0.012 µM
- relative Caspase 3/7 activity (SNU-1411 cells): no effect
- relative Caspase 3/7 activity (HPAF-II cells): no effect
